Test: Analysis of the bisabolol content on the skin (GC/MS of alcohol-pad extract) after transfer from laundered clothing article
Format: in vivo, human
Text: Protocol: • One cotton sock from the laundry described previously was inverted to expose the inner surface. • Left arm of a subject was washed with unfragranced soap followed by 95% alcohol wipe to remove any foreign material and soluble oils. • Rubbed previously laundered cotton sock with Symrelief onto subject's […]. Seven times on one side then 8 times on the other sock surface.
(§1) Protocol: • Applied 3 commercially available alcohol pads (which had been soaked in 95% ethanol) onto arm area. Allowed to dry completely. • The alcohol wipe pads were transferred into 1 oz glass jar and added 5 grams diethylether and allowed to extract for 2 hours. • Ether extract was concentrated to 100 μl under a nitrogen stream. • 2.5 μl was manually injected into a GC/MS equipt with a carbowax column and run with a splitless method. • Bisabolol peak was identified in the sample by the characteristic ions in the mass spectrum. • The control arm was treated in the same manner with no identified bisabolol.
Protocol: • One of a pair of cotton/poly socks from the laundry described previously was given to a test subject removed and blind codded. The sock was paired with a blind codded sock that was un-laundered. • The ventral surface of the subjects ankles were washed with unfragranced soap followed by 95% alcohol wipe to remove any foreign material and soluble oils. • The pair of socks were worn by a test subject for 8 hours in a normal use setting.
as §1, with “•” for “Protocol: •”, “12” for “3”, “bisabolol. […]” for “bisabolol.”

- Bisabolol peak in skin wipe extract (GC/MS, characteristic ions) (laundered cotton sock (softener with 5% Symcap G1 Bisabolol slurry) rubbed onto subject's arm, 7 and 8 times, 3 alcohol pads): identified
- Bisabolol peak in skin wipe extract (GC/MS, characteristic ions) (laundered cotton/poly sock worn for 8 hours in normal use, 12 alcohol pads): identified
- Bisabolol peak in skin wipe extract (GC/MS, characteristic ions) (laundered thermal shirt worn for 8 hours in normal use, upper arms, 12 alcohol pads): identified
Structure (SMILES): CC(C)=CCC[C@](C)(O)C1CC=C(C)CC1 (stereo partly drawn) [Bisabolol, bisabolol]
